Measured values: PMC6811539, “Minute-scale persistence of a GPCR conformation state triggered by non-cognate G protein interactions primes signaling” (Nature Communications, 2019)
Where “and” joins values, the source holds several entries; their conditions need not be identical. Equal values may be shown once. Read-outs that look alike come from different tables or passages of the source. Where a SMILES comes first, the peptide text is derived from it. The star is where a group is joined. Biotin = O=C1N[C@H]2[C@H](CS[C@H]2CCCCC(=O)*)N1

Experiments:
[1] = system: PKC; experiment: cAMP accumulation with PKC inhibitors in Gαq-overexpressing and untransfected HEK293T cells; assay type: cell-based, human; conditions: pretreatment with inhibitor 10 μM; fenoterol 10 μM, forskolin 2 μM
Description: (§1) For concentration–response curves with Gαq overexpression as well as the knockdown experiments, transfected and control cells (untransfected or mock short hairpin RNA transfected) were resuspended to equivalent concentration (4 × 10^6 cells/ml) based on Countess II numbers.

[2] = target: β2-AR SPASM sensors (Homo sapiens, UniProt P07550); experiment: cAMP accumulation in HEK293T cells expressing β2-AR SPASM sensors (cAMP Glo); assay type: cell-based; conditions: saturating agonist, normalized to β2-AR-(-), mean; for Emax: HEK-293T, read-out: Maximum cAMP (Emax)
[3] = target: endogenous β2-AR (Homo sapiens, UniProt P07550); experiment: cell-based; conditions: HEK-293T, with forskolin 2 μM, 10 min, mean ± SD
Description: as §1

[4] = target: T1, β2-AR-mCer (Homo sapiens, UniProt P07550); experiment: affinity pull-down and release (binding-and-release) assay for Gα peptide–β2-AR interaction; conditions: biotinylated peptide 30 μM, β2-mCer 10 nM
T1 construct: expressed in transfected cells; host or cells: native membranes of transiently transfected HEK293T cells
Procedure: Native membranes were prepared from cells expressing β2-mCer and stored in sucrose-supplemented buffer A as described above (Membrane preparations). Membranes were sonicated (3× bursts, 15 s with 1 min pauses) and resuspended in ΔFRET buffer minus Ca^2+ to a concentration of 10 nM receptor based on fluorescence counts. bioQp/bioSp (30 μM) and 100 μM isoproterenol were added and mixed for 5 min. Samples were split into duplicates, one of which was not manipulated in any way to obtain total receptor counts. To the other tube, 20 μl of 0.4 mg/ml streptavidin-coated magnetic beads were added, mixed, and precipitated using a Neodymium disc magnet N52 (20 × 40 mm). Supernatant was removed to a fresh micro-centrifuge tube to monitor fluorescence of receptors not bound to the beads. A solution of 100 μM Qp/Sp was added to the precipitated beads, mixed, and magnetically separated again. The supernatant was collected to determine the released fraction of receptors. Fluorescence of mCer was monitored on a FluoroMax 4 fluorometer (Horiba) using 430 nm excitation (8 nm bandpass) and emission scan from 450 to 500 nm, with the maximum at 475 nm being used for the calculation. Based on total and unbound counts, the amount of receptor bound was calculated (bound = total − unbound) and compared with the counts from the released receptor (% = released/bound). […]

[5] = extent of photocleavage of PC-Qp by MALDI-MS; assay type: physicochemical
Procedure: Native membranes were prepared from cells expressing β2-mCer and were stored in sucrose-supplemented buffer A as described above (Membrane preparations). […]. Both samples were centrifuged 100,000 × g, 5 min, 4 °C to sediment the membrane. Supernatants were stored on ice for analysis by MS. Control samples containing 50 μM peptide in the buffer were also prepared.
Prior to matrix-assisted laser desorption and ionization time-of-flight MS (MALDI-TOF MS) analysis, the samples were desalted using C18 ZipTips (Millipore Corporation, Billerica, MA). The manufacturer’s standard protocol for peptide clean-up was followed. After elution from the ZipTip, 1 μL of each sample was spotted on a MALDI-TOF 384 spot stainless-steel target (Bruker Daltonics, Billerica, MA) and mixed with 1 μl of α-cyano-4-hydroxy-cinnamic acid (α-CHCA) matrix (15 mg/ml α-CHCA in 50% acetonitrile). Each spot was allowed to dry at room temperature. The target was placed in a Bruker Autoflex Speed MALDI-TOF mass spectrometer (Bruker Daltonics, Billerica, MA) equipped with a Nd-YAG 355 nm pulsed laser. The data were collected in reflectron mode, positive polarity, with an accelerating potential of 19 kV. Each spectrum was the accumulation of 4000 laser shots with complete spot raster of the laser during data collection. External calibration was performed using 0.5 μl α-CHCA and 0.5 μl of peptide standard (part# 206195, Bruker Daltonics, Billerica, MA) with Angiotensin II (monoisotopic mass [MH^+ ] 1046.5418), Angiotensin I (monoisotopic mass [MH^+ ] 1296.6848), SubstanceP (monoisotopic mass [MH^+] 1347.7354), Bombesin (monoisotopic mass [MH^+] 1619.8223), ACTH clip 1–17 (monoisotopic mass [MH^+] 2093.0862), ACTH clip 18–39 (monoisotopic mass [MH^+] 2465.1983), and Somatostatin 28 (monoisotopic mass [MH^+] 3147.4710). The Bruker data files were converted to mzXML files using MSConvertGUI tool in ProteoWizard open-source software. The mzXML files were viewed and analyzed with mMass v5.5 open-source software.

[6] = system: V1A-R with purified Gαq; experiment: activation of purified Gq (BODIPY-FL-GTPγS) in V1A-R membranes; assay type: biochemical, human (V1AR); Mus musculus (Gαq); conditions: hotspot swapped peptide vs. parent; vasopressin 100 nM
[7] = system: V1A-R SPASM sensors; experiment: IP1 levels in HEK293T cells expressing V1A-R SPASM sensors; assay type: cell-based, human; conditions: hotspot swapped peptide vs. parent; vasopressin 100 nM
Procedure: HEK293T cells expressing the indicated sensor were collected 28–32 h post transfection, to assess IP1 levels using the IP-One HTRF assay kit (Cisbio). Cells were gently resuspended in their original media, counted using a hemocytometer, and centrifuged (300 × g, 3 min). An appropriate volume of StimB buffer (CisBio: 10 mM Hepes, 1 mM CaCl2, 0.5 mM MgCl2, 4.2 mM KCl, 146 mM NaCl, 5.5 mM glucose, 50 mM LiCl, pH 7.4) was added to reach a density of 3 × 10^6 cells/mL. Cells were incubated at 37 °C for 15 min. Cells were subsequently incubated with or without 100 nM of Arg-vasopressin peptide for 5 min at 37 °C. The manufacturer’s protocol was modified to achieve a high signal-to-noise ratio. […] IP1 FRET spectra were collected in top read format using a FlexStation3 plate reader with a delay of 50 μs and an integration time of 300 μs. […] FRET was calculated from ratio of the emission at […] to the emission at 620 nm. […]
Supplementary Figure 1 - Hot-spot substitutions in Gα peptides affect G protein activation and downstream signaling from V1A-R. (a) Activation of G protein (Gαq) is monitored by the increase in BODIPY fluorescence upon agonist stimulation of membranes harvested from HEK293T cells expressing V1A- R, and reconstituted with purified Gαq. […] Statistically significant differences were assessed by a one- way ANOVA, followed by Tukey’s post-ANOVA test. […]

Sequence of β2-AR SPASM sensors (P07550 whole entry, one chain of several): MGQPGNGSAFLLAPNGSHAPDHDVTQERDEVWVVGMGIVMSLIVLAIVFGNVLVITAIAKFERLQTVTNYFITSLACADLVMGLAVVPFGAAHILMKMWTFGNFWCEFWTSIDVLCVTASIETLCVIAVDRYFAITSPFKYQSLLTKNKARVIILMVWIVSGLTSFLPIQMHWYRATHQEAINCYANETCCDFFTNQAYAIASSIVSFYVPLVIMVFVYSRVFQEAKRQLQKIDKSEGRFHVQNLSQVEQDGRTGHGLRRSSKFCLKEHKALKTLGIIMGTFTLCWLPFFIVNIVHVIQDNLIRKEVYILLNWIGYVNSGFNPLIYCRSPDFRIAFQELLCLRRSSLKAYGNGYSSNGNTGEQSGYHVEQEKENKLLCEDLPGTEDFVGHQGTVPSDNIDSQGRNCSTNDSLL
Sequence of β2-AR SPASM sensors (P50148 333-359, one chain of several, further chain): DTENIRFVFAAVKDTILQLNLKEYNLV
T1 sequence (P07550 whole entry): as the sequence (P07550 whole entry, one chain of several) above
Sequence of endogenous β2-AR (P07550 whole entry): as the sequence (P07550 whole entry, one chain of several) above

Compound: CN(C)CCCn1cc(C2=C(c3c[nH]c4ccccc34)C(=O)NC2=O)c2ccccc21 [BimI]
- effect of PKC inhibitor on enhanced cAMP response of Gαq-overexpressing cells [1]: did not block the enhanced cAMP response

Compound: CNC[C@H](O)c1ccc(O)c(O)c1 [Epinephrine, epinephrine]
- Maximum cAMP (Emax) ([2]; b2-AR-(-) sensor): 100%
- Maximum cAMP (Emax) ([2]; b2-AR-(Qp) sensor): 182.89%
- Maximum cAMP (Emax) ([2]; b2-AR-(Sp) sensor): 197.09%

Compound: CC(Cc1ccc(O)cc1)NCC(O)c1cc(O)cc(O)c1 (centres unmarked) [Fenoterol, fenoterol]
- Emax ([2]; b2-AR-(-) sensor): 97.5%
- Emax ([2]; b2-AR-(Qp) sensor): 171%
- Emax ([2]; b2-AR-(Sp) sensor): 131%
- Emax ([3]; Gαq overexpressing): 138 ± 3.15%
- Emax ([3]; untransfected (Un.)): 94.5 ± 3.05%

Compound: COc1ccc2c(c1)c(C1=C(c3c[nH]c4ccccc34)C(=O)NC1=O)cn2CCCN(C)C [Gö6983]
- effect of PKC inhibitor on enhanced cAMP response of Gαq-overexpressing cells [1]: did not block the enhanced cAMP response

Compound: CC[C@H](C)[C@H](NC(=O)[C@H](CC(N)=O)NC(=O)[C@H](CCC(=O)O)NC(=O)[C@@H](NC(=O)[C@H](CC(=O)O)NC(=O)CCCC[C@@H]1SC[C@@H]2NC(=O)N[C@@H]21)[C@@H](C)O)C(=O)N[C@@H](CCCNC(=N)N)C(=O)N[C@@H](CCCNC(=N)N)C(=O)N[C@H](C(=O)N[C@@H](Cc1ccccc1)C(=O)N[C@@H](CC(N)=O)C(=O)N[C@@H](CC(=O)O)C(=O)N[C@@H](CS)C(=O)N[C@@H](CCCNC(=N)N)C(=O)N[C@@H](CC(=O)O)C(=O)N[C@H](C(=O)N[C@H](C(=O)N[C@@H](CCC(N)=O)C(=O)N[C@@H](CCCNC(=N)N)C(=O)N[C@@H](CCSC)C(=O)N[C@@H](Cc1c[nH]cn1)C(=O)N[C@@H](CC(C)C)C(=O)N[C@@H](CCCNC(=N)N)C(=O)N[C@@H](CCC(N)=O)C(=O)N[C@@H](Cc1ccc(O)cc1)C(=O)N[C@@H](CCC(=O)O)C(=O)N[C@@H](CC(C)C)C(=O)N[C@@H](CC(C)C)C(=O)O)[C@@H](C)CC)[C@@H](C)CC)C(C)C [bioSp] (Biotin-DTENIRRVFNDCRDIIQRMHLRQYELL-OH)
- mean bound (100-Supernatant) ([4]; isoproterenol 100 μM, total incl. nonspecific): 54.8625%
- receptor specifically pulled down (bound) ([4]; nonspecific subtracted, mean): 45% and 45.31%

Compound: N-term fragment: N-terminal fragment generated by photocleavage of PC-Qp (DTENIRFVFAAVKDTILQLNLKE)
- N-term fragment cleaved (fraction, MALDI-MS) ([5]; minus UV, replicate 1): 0.33
- N-term fragment cleaved (fraction, MALDI-MS) ([5]; minus UV, replicate 2): 0.24
- N-term fragment cleaved (fraction, MALDI-MS) ([5]; minus UV, replicate 3): 0.38
- N-term fragment cleaved (fraction, MALDI-MS) ([5]; plus UV (350 nm, 2 min), replicate 1): 0.91
- N-term fragment cleaved (fraction, MALDI-MS) ([5]; plus UV (350 nm, 2 min), replicate 2): 0.91
- N-term fragment cleaved (fraction, MALDI-MS) ([5]; plus UV (350 nm, 2 min), replicate 3): 0.92

Compound: Qp → Sp: Qp mutant L349Q, E355Q, mimicking Sp (DTENIRFVFAAVKDTIQQLNLKQYNLV)
- V1A-R G-protein activation in words [6]: increased cognate (Qp → Sp > Qp)
- V1A-R IP1 levels in words [7]: increased cognate (Qp → Sp > Qp)
